Data on seven compounds can be found in patent US12077503B2, “Substituted cyclic amides and their use as herbicides” (FMC CORPORATION, priority 2015, dated 2024).

Common to all, as to format: in vivo
For assay [1], the system named is giant foxtail (Setaria faberii). Nature of the assay: Test A preemergence. The following applies: Setaria faberi, pre-emergence, 240 h; for pest or weed control at 125 g/ha: 125 g ai/ha, preemergence, 0 to 100 scale where 0 is no effect and 100 is complete control, read-out: Foxtail, Giant plant response rating; for pest or weed control at 500 g/ha: 500 g ai/ha, Preemergence, visual injury vs untreated controls after approximately 10 d, read-out: Foxtail, Giant plant response rating (0 to 100 scale where 0 is no effect and 100 is complete control). The essentials:
(§1)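 Treatment is preemergence as a directed soil spray after planting, or postemergence at the one- to two-leaf stage, with test chemical in a non-phytotoxic solvent mixture plus surfactant. Plants stay in the greenhouse about 10 d before visual injury scoring on a 0 to 100 scale versus untreated controls.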

Assay [2] deals with barnyardgrass (Echinochloa crus-galli). The assay can be described thus: Test B flooded paddy test. The following applies: Echinochloa crus-galli, Flood, 250 g ai/ha; scale of 0 to 100 where 0 is no effect and 100 is complete control; read-out: Barnyardgrass plant response rating. The essentials: (§2)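 Percent control, visually estimated after 13–15 d in the greenhouse on a 0–100 basis, compares treated pots with untreated ones; compound was put into paddy water 3 cm above the soil when plants had two leaves.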

Assay [3] relates to sedge, umbrella (small-flower umbrella sedge, Cyperus difformis). Nature of the assay: Test B flooded paddy test. The conditions noted are these: Cyperus difformis, Flood, 250 g ai/ha; scale of 0 to 100 where 0 is no effect and 100 is complete control; read-out: Sedge, Umbrella plant response rating. The essentials:
as §2

The test system of another assay is rice (Oryra sativa). Nature of the assay: Test B flooded paddy test. The following applies: Oryza sativa, Flood, 250 g ai/ha; scale of 0 to 100 where 0 is no effect and 100 is complete control; read-out: Rice plant response rating. In outline:
as §2

The test system of assay [4] is ducksalad (Heteranthera limosa). Nature of the assay: Test B flooded paddy test. The conditions noted are these: Heteranthera limosa, Flood, 250 g ai/ha; scale of 0 to 100 where 0 is no effect and 100 is complete control; read-out: Ducksalad plant response rating. In outline: as §2
In assay [5] the test system is wheat (Triticum aestivum). The assay can be described thus: Test A postemergence. The conditions noted are these: Triticum aestivum, post-emergence, 240 h, 125 g ai/ha, postemergence, visual injury rating after approximately 10 d; read-out: Wheat plant response rating (0 to 100 scale, 0 no effect, 100 complete control). In outline: as §1
The test system of assay [6] is barnyardgrass (Echinochloa crus-galli). Nature of the assay: Test A postemergence. The following applies: Echinochloa crus-galli, post-emergence, 240 h, 125 g ai/ha, postemergence, visual injury rating after approximately 10 d; read-out: Barnyardgrass plant response rating (0 to 100 scale, 0 no effect, 100 complete control). The essentials: as §1
The next assay relates to Kochia (Kochia scoparia). The assay can be described thus: Test A postemergence. The following applies: Bassia scoparia, post-emergence, 240 h, 125 g ai/ha, postemergence, visual injury rating after approximately 10 d; read-out: Kochia plant response rating (0 to 100 scale, 0 no effect, 100 complete control). The essentials:
as §1

The subject of assay [7] is pigweed (Amaranthus retroflexus). Nature of the assay: Test A postemergence. The following applies: Amaranthus retroflexus, post-emergence, 240 h, 125 g ai/ha, postemergence, visual injury rating after approximately 10 d; read-out: Pigweed plant response rating (0 to 100 scale, 0 no effect, 100 complete control). The essentials:
as §1

In assay [8] the test system is ryegrass, Italian (Italian ryegrass, Lolium multiflorum). Nature of the assay: Test A postemergence. The following applies: Lolium multiflorum, post-emergence, 240 h, 125 g ai/ha, postemergence, visual injury rating after approximately 10 d; read-out: Ryegrass, Italian plant response rating (0 to 100 scale, 0 no effect, 100 complete control). In outline: as §1
The subject of assay [9] is ragweed (common ragweed, Ambrosia elatior). Nature of the assay: Test A postemergence. The conditions noted are these: Ambrosia artemisiifolia, post-emergence, 240 h, 125 g ai/ha, postemergence, visual injury rating after approximately 10 d; read-out: Ragweed plant response rating (0 to 100 scale, 0 no effect, 100 complete control). The essentials:
as §1

A further assay deals with corn (Zea mays). Nature of the assay: Test A postemergence. The conditions noted are these: Zea mays, post-emergence, 240 h, 125 g ai/ha, postemergence, visual injury rating after approximately 10 d; read-out: Corn plant response rating (0 to 100 scale, 0 no effect, 100 complete control). The essentials: as §1
For assay [10], the system named is blackgrass (Alopecurus myosuroides). The assay can be described thus: Test A postemergence. The following applies: Alopecurus myosuroides, post-emergence, 240 h, 125 g ai/ha, postemergence, visual injury rating after approximately 10 d; read-out: Blackgrass plant response rating (0 to 100 scale, 0 no effect, 100 complete control). The essentials:
as §1

Assay [11] has as its system Galium (catchweed bedstraw, Galium aparine). The assay can be described thus: Test A postemergence. The following applies: Galium, post-emergence, 240 h, 125 g ai/ha, postemergence, visual injury rating after approximately 10 d; read-out: Galium plant response rating (0 to 100 scale, 0 no effect, 100 complete control). The essentials:
as §1

The test system of assay [12] is giant foxtail (Setaria faberii). Nature of the assay: Test A postemergence. The conditions noted are these: Setaria faberi, post-emergence, 240 h, 125 g ai/ha, postemergence, visual injury rating after approximately 10 d; read-out: Foxtail, Giant plant response rating (0 to 100 scale, 0 no effect, 100 complete control). The essentials: as §1

Turning to `Cc1c(F)ccc([C@H]2CN(C)C(=O)[C@@H]2C(=O)Nc2ccccc2C(F)(F)F)c1F` [Compound 841], the pest or weed control at 125 g/ha in [1] came out at 90%; in [6], 80%; in the assay on Kochia (Kochia scoparia), 30%; in assay [7] it was 0%; in assay [8], 20%; in [9], 0%. The pest or weed control at 125 g/ha in assay [10] was found to be 30%; in assay [11], 40%; in [12], 90%. For the same compound, the pest or weed control at 500 g/ha in assay [1] is 90%. In addition, the pest or weed control at 250 g/ha in assay [2] was 40%; in assay [3], 0%; in the assay with rice (Oryra sativa) it was 0%; in [4], 80%. Besides, the plant injury at 125 g/ha (in [5]; in the assay on corn (Zea mays)) was 0% in each case.
On to `Cc1c(F)ccc([C@H]2CN(C)C(=O)[C@@H]2C(=O)Nc2ccccc2S(C)(=O)=O)c1F` [Compound 842], for which the pest or weed control at 125 g/ha in assay [1] is 90%; in assay [6], 90%; in the assay on Kochia (Kochia scoparia), 30%; in assay [7], 30%; in assay [8], 20%; in assay [9], 30%. The pest or weed control at 125 g/ha amounted to 30% in assay [10], 50% in [11] and 90% in assay [12]. Further, the pest or weed control at 500 g/ha in assay [1] was 100%. For the same compound, the pest or weed control at 250 g/ha in [2] amounted to 65%; in assay [3], 0%; in the assay on rice (Oryra sativa), 0%; in [4], 100%. Further, the figures for the plant injury at 125 g/ha (in assay [5]; in the assay on corn (Zea mays)) were 30% and 20%, respectively.
On to `CN1CC(c2cccc(C=O)c2)C(C(=O)Nc2ccccc2F)C1=O` (stereo not shown) [Compound 844], for which the pest or weed control at 125 g/ha (in assay [1]; in [6]; with Kochia (Kochia scoparia); in assay [7]; in [8]; in [9]) was 0% throughout. The pest or weed control at 125 g/ha in assay [10], in [11] and in assay [12] was 0% throughout. Besides, the pest or weed control at 500 g/ha in [1] was determined as 30%. Moreover, the pest or weed control at 250 g/ha (in [2]; in assay [3]; with rice (Oryra sativa); in assay [4]) was 0% in each case. Besides, the plant injury at 125 g/ha (in assay [5]; in the assay on corn (Zea mays)) was 0% in each case.
On to `O=C1NCC(c2cccc(I)c2)C1C(=O)Nc1ccccc1F` (stereo not shown) [Compound 845], for which the pest or weed control at 125 g/ha worked out at 80% in assay [1]; 80% in assay [6]; 0% in the assay with Kochia (Kochia scoparia); 0% in [7]; 30% in assay [8]; 0% in [9]. The figures for the pest or weed control at 125 g/ha in [10], in [11] and in [12] were 40%, 20% and 90%, respectively. Further, in [1], the pest or weed control at 500 g/ha turned out to be 90%. The pest or weed control at 250 g/ha in [2] was determined as 30%; in assay [3], 0%; in the assay with rice (Oryra sativa), 20%; in assay [4], 0%. For the same compound, the plant injury at 125 g/ha was 0% in assay [5] and 30% in the assay on corn (Zea mays).
Consider `CC(C)(C)c1ccc([C@H]2CNC(=O)[C@@H]2C(=O)Nc2cccc(F)c2F)cc1` [Compound 847], for which the pest or weed control at 125 g/ha (in assay [1]; in assay [6]; in the assay with Kochia (Kochia scoparia); in [7]; in [8]; in assay [9]) was 0% throughout. Moreover, the pest or weed control at 125 g/ha in [10], in assay [11] and in assay [12] was 0% in each case. For the same compound, the pest or weed control at 500 g/ha in [1] came out at 50%. The pest or weed control at 250 g/ha in assay [2] worked out at 0%; in assay [3], 0%; in the assay on rice (Oryra sativa), 0%; in assay [4] it was 90%. Also, the plant injury at 125 g/ha (in assay [5]; in the assay on corn (Zea mays)) was 0% throughout.
On to `COc1cc([C@H]2CN(C)C(=O)[C@@H]2C(=O)Nc2ccccc2SC)cc(C(F)(F)F)c1` [Compound 857], for which the pest or weed control at 125 g/ha in [1] was 80%; in [6], 70%; in the assay on Kochia (Kochia scoparia), 20%; in [7], 30%; in assay [8], 20%; in assay [9] it was 0%. Besides, the results for the pest or weed control at 125 g/ha in assay [10], in [11] and in [12] were 30%, 20% and 70%, respectively. Besides, in assay [1], the pest or weed control at 500 g/ha amounted to 90%. The pest or weed control at 250 g/ha in [2] is 60%; in assay [3], 80%; with rice (Oryra sativa), 0%; in [4], 80%. Besides, the plant injury at 125 g/ha in [5] amounted to 30%; in the assay on corn (Zea mays), 40%.
`COc1cc(C(F)(F)F)ccc1[C@H]1CN(C)C(=O)[C@@H]1C(=O)Nc1ccccc1F` [Compound 858]: the pest or weed control at 125 g/ha in assay [1] was 90%; in assay [6], 80%; in the assay on Kochia (Kochia scoparia), 20%; in assay [7] it was 20%; in [8] it was 20%; in assay [9], 0%. For the same compound, the pest or weed control at 125 g/ha amounted to 0% in assay [10], 30% in assay [11] and 80% in assay [12]. Also, the pest or weed control at 500 g/ha in assay [1] was 90%. The pest or weed control at 250 g/ha in assay [2] amounted to 45%; in assay [3] it was 0%; in the assay on rice (Oryra sativa), 0%; in assay [4], 100%. In addition, the plant injury at 125 g/ha (in [5]; in the assay on corn (Zea mays)) was 20% each time.
